The results in this text go back to ChEMBL document CHEMBL1151032, “Local constrained shifty pseudopeptides inhibitors of rasfarnesyl transferase” (Bioorg Med Chem Lett, 1995).

One may read the IC50 as the concentration needed to halve the response being measured. A high value points to weaker potency. One may read the inhibition as the change of the read-out against control, counted positive when it falls. High values mean a response far below the control, low ones a response near the control.

Experiment [1] addresses T1, Protein farnesyltransferase (Mus musculus, UniProt Q61239+Q8K2I1). The experiment can be described thus: Inhibition of farnesyl transferase in NIH3T3 cell based assay under reducing (+DTT) conditions. It counts as functional.
In experiment [2] the test system is NIH3T3. The experiment can be described thus: Inhibition of v-Raf-transformed NIH3T3 cell growth at 10 uM. Conditions: Mus musculus; call rule not given here. In kind it is functional.
Experiment [3] deals with T2, Protein farnesyltransferase (Homo sapiens, UniProt P49354+P49356). The experiment can be described thus: In vitro inhibition of farnesyl transferase. In kind it is protein-complex assay.
In experiment [4] the test system is NIH3T3. The experiment can be described thus: Inhibition of Ha-Ras-transformed NIH3T3 cell growth at 10 uM. Conditions: Mus musculus. In kind it is functional.
For experiment [5], the system named is NIH3T3. The experiment can be described thus: Inhibition of Ha-Ras-transformed NIH3T3 cell growth at 1 uM. Conditions: Mus musculus. In kind it is functional.
The subject of experiment [6] is NIH3T3. The experiment can be described thus: Inhibition of Ki-Ras-transformed NIH3T3 cell growth at 5 uM. In kind it is functional. The note with it: Mus musculus.
Experiment [7] has as its target T1, Protein farnesyltransferase. The experiment can be described thus: Inhibition of farnesyl transferase in NIH3T3 cell based assay in non-reducing (-DTT) conditions. In kind it is functional.
The subject of experiment [8] is NIH3T3. The experiment can be described thus: Inhibition of Ki-Ras-transformed NIH3T3 cell growth at 1 uM. In kind it is functional. The note with it: Mus musculus.
Experiment [9] concerns NIH3T3. The experiment can be described thus: Inhibition of Ki-Ras-transformed NIH3T3 cell growth at 10 uM. In kind it is functional. Conditions: Mus musculus.
Experiment [10] has as its system NIH3T3. The experiment can be described thus: Inhibition of Ha-Ras-transformed NIH3T3 cell growth at 5 uM. In kind it is functional. Conditions: Mus musculus.
Experiment [11] deals with T2, Protein farnesyltransferase. The experiment can be described thus: In vitro inhibition of farnesyl transferase enzyme (inactive). It counts as protein-complex assay.
The target is the same in experiment [12]. The experiment can be described thus: In vitro inhibition of Human farnesyl transferase. It counts as protein-complex assay.
Experiment [13] concerns the target Protein farnesyltransferase (Bos taurus, UniProt P29702+P49355). The experiment can be described thus: In vitro inhibition of bovine farnesyl transferase. It counts as protein-complex assay.

Take `COC(=O)[C@H](CCSC)NC(=O)[C@@H]1Cc2ccccc2CN1C(=O)CNCCSSCCNCC(=O)N1Cc2ccccc2C[C@H]1C(=O)N[C@@H](CCSC)C(=O)OC`: the figures for the IC50 in [1], in experiment [3] and in experiment [7] were 100 µM, 0.145 µM and 100 µM, respectively. Besides, the results for the inhibition at 10 µM with NIH3T3 [2], in the experiment with NIH3T3 [4] and with NIH3T3 [9] were 9%, 91% and 97%, respectively. The inhibition at 1 µM with NIH3T3 [5] was 9%; with NIH3T3 [8], 24%. Moreover, the inhibition at 5 µM in the experiment with NIH3T3 [6] was determined as 89%; in the experiment on NIH3T3 [10], 80%.
With `CSCC[C@H](NC(=O)[C@@H]1Cc2ccccc2CN1C(=O)CN(CCSSCCN(CC(=O)N1Cc2ccccc2C[C@H]1C(=O)N[C@@H](CCSC)C(=O)O)C(=O)OC(C)(C)C)C(=O)OC(C)(C)C)C(=O)O`, the IC50 in experiment [1] was > 1000 µM; in experiment [3], > 100 µM; in [7] it was > 1000 µM.
`CSCC[C@H](NC(=O)[C@@H]1Cc2ccccc2CN1C(=O)CNCCS)C(=O)O`: the IC50 in experiment [3] amounted to 0.1 µM.
Turning to `CSCCC(NC(=O)C1Cc2ccccc2CN1CC(=O)NCCSSCCNC(=O)CN1Cc2ccccc2CC1C(=O)NC(CCSC)C(=O)O)C(=O)O` (stereo not given), the IC50 entry in experiment [11] is given as “Not Active”.
Still for that read-out and setting: as for `COC(=O)C(CCSC)NC(=O)C1Cc2ccccc2CN1CC(=O)NCCSSCCNC(=O)CN1Cc2ccccc2CC1C(=O)NC(CCSC)C(=O)OC` (stereo not given), the entry is “Not Active”.
In the case of `CSCC[C@H](NC(=O)[C@@H]1Cc2ccccc2CN1C(=O)[C@H](C(C)C)N(C)C(=O)[C@@H](N)CS)C(=O)O`, the IC50 in experiment [12] came out at 0.005 µM.
As to `COC(=O)[C@H](CCSC)NC(=O)[C@@H]1Cc2ccccc2CN1C(=O)CN(CCSSCCN(CC(=O)N1Cc2ccccc2C[C@H]1C(=O)N[C@@H](CCSC)C(=O)OC)C(=O)OC(C)(C)C)C(=O)OC(C)(C)C`, the IC50 in experiment [1] is > 1000 µM; in experiment [3], > 100 µM; in experiment [7] it was > 1000 µM.
In the case of `CSCC[C@H](NC(=O)[C@@H]1Cc2ccccc2CN1C(=O)CN(CCS)C(=O)OC(C)(C)C)C(=O)O`, in experiment [3], the IC50 was > 100 µM.
With `CSCC[C@H](NC(=O)[C@H](Cc1ccccc1)NC(=O)[C@@H](NC[C@@H](N)CS)C(C)C)C(=O)O`, in experiment [13], the IC50 was 0.023 µM.
`COC(=O)[C@H](CCSC)NC(=O)[C@@H]1Cc2ccccc2CN1C(=O)CNCCS` showed an IC50 in experiment [3] of 0.29 µM.
Turning to `CSCC[C@H](NC(=O)[C@H](Cc1ccccc1)NC[C@@H](NC[C@@H](N)CS)C(C)C)C(=O)O`, in experiment [13], it took 0.021 µM to reach half-maximal inhibition (IC50).
The compound `CSCCC(NC(=O)C1Cc2ccccc2CN1CC(=O)NCCS)C(=O)O` (stereo not given) showed an IC50 in [3] of 2 µM.
`CSCC[C@H](NC(=O)[C@@H]1Cc2ccccc2CN1C(=O)CNCCSSCCNCC(=O)N1Cc2ccccc2C[C@H]1C(=O)N[C@@H](CCSC)C(=O)O)C(=O)O`: the IC50 in [1] is > 1000 µM; in [3], 0.05 µM; in [7], > 1000 µM.
Take `COC(=O)C(CCSC)NC(=O)C1Cc2ccccc2CN1CC(=O)NCCS` (stereo not given): in experiment [11], the IC50 entry is “Not Active”.
With `COC(=O)[C@H](CCSC)NC(=O)[C@@H]1Cc2ccccc2CN1C(=O)CN(CCS)C(=O)OC(C)(C)C`, the IC50 in experiment [3] is > 100 µM.
